Consider seven compounds from ChEMBL document CHEMBL4020739, “Investigation of the structural requirements of K-Ras(G12D) selective inhibitory peptide KRpep-2d using alanine scans and cysteine bridging” (Bioorg Med Chem Lett, 2017).

The subject of assay [1] is A-427. In words: Antiproliferative activity against human A427 cells harboring K-Ras G12D mutant assessed as cell proliferation at 10 uM by CellTitre-Glo assay relative to control. The conditions noted are these: read-out: Activity. It is filed as functional.
A further assay deals with A549. The assay can be described thus: Antiproliferative activity against human A549 cells harboring K-Ras G12C mutant assessed as cell proliferation at 10 to 30 uM by CellTitre-Glo assay. It is filed as functional, cell-based.
In assay [2] the test system is A-427. In words: Antiproliferative activity against human A427 cells harboring K-Ras G12D mutant assessed as cell proliferation at 30 uM by CellTitre-Glo assay relative to control. It counts as functional. The conditions noted are these: read-out: Activity.
The target in assay [3] is GTPase KRas (Homo sapiens, UniProt P01116, G12C). The assay can be described thus: Inhibition of biotinylated K-Ras G12C mutant (unknown origin) assessed as reduction in SOS1 (564 to 1049 residues)-mediated BODIPY-GDP-GTP exchange after 1 hr by TR-FRET assay. In general terms: In TR-FRET formats the signal depends on donor and acceptor labels being close together.
Assay [4] concerns the target T1, GTPase KRas (Homo sapiens, UniProt P01116, G12D). In words: Inhibition of biotinylated K-Ras G12D mutant (unknown origin) assessed as reduction in SOS1 (564 to 1049 residues)-mediated BODIPY-GDP-GTP exchange after 1 hr by TR-FRET assay.
Assay [5] deals with GTPase KRas (Homo sapiens, UniProt P01116). In words: Inhibition of biotinylated wild-type K-Ras (unknown origin) assessed as inhibition of human SOS1 (564 to 1049 residues)-mediated BODIPY-GDP-GTP exchange after 1 hr by TR-FRET assay.
Assay [6] concerns the target T1, GTPase KRas. The assay can be described thus: Inhibition of biotinylated K-Ras G12D mutant (unknown origin) assessed as reduction in SOS1 (564 to 1049 residues)-mediated BODIPY-GDP-GTP exchange after 1 hr in presence of DTT by TR-FRET assay.
The species named for assay [7] is Homo sapiens. The assay can be described thus: Selectivity ratio of IC50 for inhibition of biotinylated wild type K-Ras (unknown origin) to IC50 for inhibition of biotinylated K-Ras G12D mutant (unknown origin).
The species named for assay [8] is Homo sapiens. The assay can be described thus: Selectivity ratio of IC50 for inhibition of biotinylated K-Ras G12C mutant (unknown origin) to IC50 for inhibition of biotinylated K-Ras G12D mutant (unknown origin).

SMILES strings stand for the structures. Activity calls are given as the source filed them. The calls are words filed in the database; no cut-off is given here. Peptide text beside a SMILES is read from it.

Take `CC[C@H](C)[C@@H]1NC(=O)[C@H](Cc2ccc(O)cc2)NC(=O)[C@H](CC(C)C)NC(=O)[C@@H]2CCCN2C(=O)[C@@H](NC(=O)[C@H](CCCNC(=N)N)NC(=O)[C@H](CCCNC(=N)N)NC(=O)[C@H](CCCNC(=N)N)NC(=O)[C@H](CCCNC(=N)N)NC(C)=O)CSCSC[C@@H](C(=O)N[C@@H](CCCNC(=N)N)C(=O)N[C@@H](CCCNC(=N)N)C(=O)N[C@@H](CCCNC(=N)N)C(=O)N[C@@H](CCCNC(=N)N)C(N)=O)NC(=O)[C@H](C(C)C)NC(=O)[C@@H]2CCCN2C(=O)[C@H](CC(=O)O)NC(=O)[C@H](Cc2ccc(O)cc2)NC(=O)[C@H](CO)NC1=O`: the growth at 10 µM in the assay with A-427 [1] is 91%. Further, the result with A549 was inactive. Also, in the assay with A-427 [2], the growth at 30 µM was 69.9%.

With `CC[C@H](C)[C@@H]1NC(=O)[C@H](Cc2ccc(O)cc2)NC(=O)[C@H](C)NC(=O)[C@@H]2CCCN2C(=O)[C@@H](NC(=O)[C@H](CCCNC(=N)N)NC(=O)[C@H](CCCNC(=N)N)NC(=O)[C@H](CCCNC(=N)N)NC(=O)[C@H](CCCNC(=N)N)NC(C)=O)CSSC[C@@H](C(=O)N[C@@H](CCCNC(=N)N)C(=O)N[C@@H](CCCNC(=N)N)C(=O)N[C@@H](CCCNC(=N)N)C(=O)N[C@@H](CCCNC(=N)N)C(N)=O)NC(=O)[C@H](C(C)C)NC(=O)[C@@H]2CCCN2C(=O)[C@H](CC(=O)O)NC(=O)[C@H](Cc2ccc(O)cc2)NC(=O)[C@H](CO)NC1=O` (HELM PEPTIDE1{[ac].R.R.R.R.C.P.A.Y.I.S.Y.D.P.V.C.R.R.R.R.[am]}$PEPTIDE1,PEPTIDE1,6:R3-16:R3$$$V2.0), the IC50 (commonly the concentration that inhibits the measured activity by half) at GTPase KRas [3] is 1.63 µM; at GTPase KRas [4], 1.79 µM; at GTPase KRas [5], greater than 100 µM; at GTPase KRas [6] it was greater than 100 µM. The results for the Ratio IC50 in the assay filed under Homo sapiens [7] and in the assay listed under Homo sapiens [8] were greater than 56 and 1, respectively.

`CC[C@H](C)[C@@H]1NC(=O)[C@H](C)NC(=O)[C@H](CC(C)C)NC(=O)[C@@H]2CCCN2C(=O)[C@@H](NC(=O)[C@H](CCCNC(=N)N)NC(=O)[C@H](CCCNC(=N)N)NC(=O)[C@H](CCCNC(=N)N)NC(=O)[C@H](CCCNC(=N)N)NC(C)=O)CSSC[C@@H](C(=O)N[C@@H](CCCNC(=N)N)C(=O)N[C@@H](CCCNC(=N)N)C(=O)N[C@@H](CCCNC(=N)N)C(=O)N[C@@H](CCCNC(=N)N)C(N)=O)NC(=O)[C@H](C(C)C)NC(=O)[C@@H]2CCCN2C(=O)[C@H](CC(=O)O)NC(=O)[C@H](Cc2ccc(O)cc2)NC(=O)[C@H](CO)NC1=O` (HELM PEPTIDE1{[ac].R.R.R.R.C.P.L.A.I.S.Y.D.P.V.C.R.R.R.R.[am]}$PEPTIDE1,PEPTIDE1,6:R3-16:R3$$$V2.0): the IC50 on GTPase KRas [3] is 0.053 µM; at GTPase KRas [4], 0.05 µM; at GTPase KRas [5] it was 1.73 µM; on GTPase KRas [6] it was 0.192 µM. The Ratio IC50 turned out to be 34 in the assay listed under Homo sapiens [7] and 1 in the assay filed under Homo sapiens [8].

Regarding `CC[C@H](C)[C@@H]1NC(=O)[C@H](Cc2ccc(O)cc2)NC(=O)[C@H](CC(C)C)NC(=O)[C@@H]2CCCN2C(=O)[C@@H](NC(=O)[C@H](CCCNC(=N)N)NC(=O)[C@H](CCCNC(=N)N)NC(=O)[C@H](CCCNC(=N)N)NC(=O)[C@H](CCCNC(=N)N)NC(C)=O)CSSC[C@@H](C(=O)N[C@@H](CCCNC(=N)N)C(=O)N[C@@H](CCCNC(=N)N)C(=O)N[C@@H](CCCNC(=N)N)C(=O)N[C@@H](CCCNC(=N)N)C(N)=O)NC(=O)[C@H](C)NC(=O)[C@@H]2CCCN2C(=O)[C@H](CC(=O)O)NC(=O)[C@H](Cc2ccc(O)cc2)NC(=O)[C@H](CO)NC1=O` (HELM PEPTIDE1{[ac].R.R.R.R.C.P.L.Y.I.S.Y.D.P.A.C.R.R.R.R.[am]}$PEPTIDE1,PEPTIDE1,6:R3-16:R3$$$V2.0), the IC50 is 0.044 µM on GTPase KRas [3], 0.0075 µM on GTPase KRas [4], 0.105 µM on GTPase KRas [5] and 0.0358 µM at GTPase KRas [6]. For the same compound, the Ratio IC50 turned out to be 14 in the assay listed under Homo sapiens [7] and 6 in the assay filed under Homo sapiens [8].

With `CC[C@H](C)[C@@H]1NC(=O)[C@H](Cc2ccc(O)cc2)NC(=O)[C@H](CC(C)C)NC(=O)[C@@H]2CCCN2C(=O)[C@@H](NC(C)=O)CSSC[C@@H](C(N)=O)NC(=O)[C@H](C(C)C)NC(=O)[C@@H]2CCCN2C(=O)[C@H](CC(=O)O)NC(=O)[C@H](Cc2ccc(O)cc2)NC(=O)[C@H](CO)NC1=O` (HELM PEPTIDE1{[ac].C.P.L.Y.I.S.Y.D.P.V.C.[am]}$PEPTIDE1,PEPTIDE1,2:R3-12:R3$$$V2.0), the IC50 at GTPase KRas [3] was found to be 0.082 µM; at GTPase KRas [4] it was 0.011 µM; on GTPase KRas [5], 0.142 µM; at GTPase KRas [6], 9.77 µM. Further, the Ratio IC50 in the assay listed under Homo sapiens [7] came to 13; in the assay filed under Homo sapiens [8], 7.

Turning to `CC[C@H](C)[C@@H]1NC(=O)[C@H](Cc2ccc(O)cc2)NC(=O)[C@H](CC(C)C)NC(=O)[C@H](C)NC(=O)[C@@H](NC(=O)[C@H](CCCNC(=N)N)NC(=O)[C@H](CCCNC(=N)N)NC(=O)[C@H](CCCNC(=N)N)NC(=O)[C@H](CCCNC(=N)N)NC(C)=O)CSSC[C@@H](C(=O)N[C@@H](CCCNC(=N)N)C(=O)N[C@@H](CCCNC(=N)N)C(=O)N[C@@H](CCCNC(=N)N)C(=O)N[C@@H](CCCNC(=N)N)C(N)=O)NC(=O)[C@H](C(C)C)NC(=O)[C@@H]2CCCN2C(=O)[C@H](CC(=O)O)NC(=O)[C@H](Cc2ccc(O)cc2)NC(=O)[C@H](CO)NC1=O` (HELM PEPTIDE1{[ac].R.R.R.R.C.A.L.Y.I.S.Y.D.P.V.C.R.R.R.R.[am]}$PEPTIDE1,PEPTIDE1,6:R3-16:R3$$$V2.0), the IC50 at GTPase KRas [3] worked out at 0.113 µM; at GTPase KRas [4], 0.019 µM; on GTPase KRas [5], 0.763 µM; at GTPase KRas [6], 0.172 µM. The figures for the Ratio IC50 in the assay listed under Homo sapiens [7] and in the assay filed under Homo sapiens [8] were 41 and 6, respectively.

For the compound `CC[C@H](C)[C@@H]1NC(=O)[C@H](Cc2ccc(O)cc2)NC(=O)[C@H](CC(C)C)NC(=O)[C@@H]2CCCN2C(=O)[C@@H](NC(=O)[C@H](CCCNC(=N)N)NC(=O)[C@H](CCCNC(=N)N)NC(=O)[C@H](CCCNC(=N)N)NC(=O)[C@H](CCCNC(=N)N)NC(C)=O)CSSC[C@@H](C(=O)N[C@@H](CCCNC(=N)N)C(=O)N[C@@H](CCCNC(=N)N)C(=O)N[C@@H](CCCNC(=N)N)C(=O)N[C@@H](CCCNC(=N)N)C(N)=O)NC(=O)[C@H](C(C)C)NC(=O)[C@@H]2CCCN2C(=O)[C@H](CC(=O)O)NC(=O)[C@H](C)NC(=O)[C@H](CO)NC1=O` (HELM PEPTIDE1{[ac].R.R.R.R.C.P.L.Y.I.S.A.D.P.V.C.R.R.R.R.[am]}$PEPTIDE1,PEPTIDE1,6:R3-16:R3$$$V2.0), the IC50 at GTPase KRas [3] was determined as 0.358 µM; at GTPase KRas [4] it was 0.064 µM; on GTPase KRas [5], 4.19 µM; on GTPase KRas [6] it was 0.244 µM. Also, the Ratio IC50 in the assay filed under Homo sapiens [7] was found to be 65; in the assay listed under Homo sapiens [8], 6.
